Laboratory results: a melting point compilation (Tetko et al.; mined from patent text by program, amines drawn as free bases though some values may be those of a salt)

| melting point [°C] | Structure (SMILES) |
| --- | --- |
| 142 to 143 | Cn1cccc1-c1cc(O)c2ncccc2c1O |
| 186 to 188 | Cc1cccc(NC(=O)Cn2c3c(c4cc(Cl)c(Cl)cc42)CCN(C(=O)OC(C)(C)C)CC3)c1C |
| 192 to 193 | CC(O)c1ccc(NS(C)(=O)=O)c(Nc2ccc(F)cc2F)c1 (stereo unspecified) |
| 180 to 182 | CCCCc1nc2cc(C(=O)O)ccc2n1Cc1ccc(-c2ccccc2-c2nnn[nH]2)cc1 |
| 172 to 174 | CC(=O)Nc1cc(C(=O)OCCN2CCCCC2)c2oc(-c3ccccc3)cc2c1 |
| 62 to 64 | CCOC(=O)c1cccc(-n2cccc2)c1 |
| 192 to 193 | CC(C)(C(=O)OCC(=O)c1ccccc1)n1c(=O)[nH]c2ccc(F)cc2c1=O |
| 169 | O=C(O)C1CSC(c2ccccc2O)N1 (stereo unspecified) |
| 191 to 192 | Cc1oc(-c2ccccc2)nc1C=Cc1ccc(/C=C/C=O)cc1 |
| 37 to 39 | CCCCCCCCCCCC(=O)NC(CCCCNN=C=S)C(=O)O (stereo unspecified) |
| 237 | CN1CC(C(O)C(O)C(O)CO)OC1=C(C#N)C=C1Nc2ccccc2C1=O (stereo unspecified) |
| 127 to 128 | CCOC(=O)Cc1nc(N)cc(Cl)n1 |
| 55 to 56 | CCOC(=O)CN(C)c1ccc(N=O)cc1 |
| 148 to 151 | CC1CCCN(CCNc2ccnc3cc(Cl)ccc23)C1 (racemic) |
| 119 | COc1cccc(OC)c1-c1ccc(CC(NC(=O)Nc2ccccc2S(=O)(=O)c2ccccc2)C(=O)O)cc1 (stereo unspecified) |
| 129 to 130 | CC(C)c1ccc2nc3c(C(=O)NCCCCc4cccnc4)cccn3c(=O)c2c1 |
| 105 to 107 | COc1ccc(N2CCCN(c3c(C)c(C)c4c(c3C)CC(C)(C)O4)CC2)cc1 |
| > 300 | CCn1cc(C(=O)O)c(=O)c2cc(F)c(N3Cc4ccccc4C3)cc21 |
| 114 to 118 | COc1ccc2[nH]c(S(=O)Cc3cc(N4CCCCC4)c(Br)cn3)nc2c1 (stereo unspecified) |
| 92 to 95 | CC(C)(C(=O)O)c1ccc2oc(-c3ccccc3)nc2c1 |
| 188 to 189 | O=C(O)CC1CCCc2c1n(Cc1cccc(Cl)c1)c1c(F)cc(F)cc21 (stereo unspecified) |
| 200 | O=[N+]([O-])c1cccc(-c2cccc([N+](=O)[O-])c2)c1 |
| 50 | CCCc1ccc(C=NN=Cc2ccc(F)c(F)c2)cc1 |
| 56 to 57 | CSc1csc2ccc(Br)cc12 |
| > 190 | CC(C)(C)N(NC(=O)c1cccs1)C(=O)c1ccccc1 |

| melting point [°C] | Structure (SMILES) |
| --- | --- |
| 157 to 160 | O=C(NCC12CC3CC(CC(C3)C1)C2)c1c(Cl)ccc2nc(N3CCC[C@@H]3C(=O)O)ccc12 |
| 267 to 268 | CC(C)(C)c1ccc(C(=O)Nc2cn3nc(N)ccc3n2)cc1 |
| 88.5 to 94.5 | COc1cccc(Sc2ccc(O)cc2)n1 |
| 61 to 63 | CCOC1CCC(=O)N1S(=O)(=O)C=Cc1ccccc1 (stereo unspecified) |
| 205 | Cc1cc(-c2cc(C(F)(F)F)nc(-c3cccc(-c4cccc(S(N)(=O)=O)c4)c3)n2)ccc1C(F)(F)F |
| 163 to 165 | C/C=C1\OC(=O)c2c(Oc3nc(OC)cc(OC)n3)cccc21 |
| 72 to 74 | CSc1ccc(C2=C(c3ccc(Cl)cc3)CCC2)cc1 |
| 88 | COCc1cc2c(N=C=S)cccc2cn1 |
| 200 | COC(=O)c1ncc(C)cc1C(=O)O |
| 69 to 72 | CCCCCCC(=O)c1ccc2cc(OC)ccc2c1 |
| > 260 | O=C1c2cccc([N+](=O)[O-])c2C2CC(O)CCN12 (stereo unspecified) |
| 150 to 152 | COC(=O)c1ccc(-c2ccc(C(CC3CCOCC3)c3ccc(S(=O)(=O)C4CC4)cc3)[nH]2)nc1 (stereo unspecified) |
| 180 to 182 | Cc1cc(C)cc(-c2cc3cnc(N)nc3nc2NC(=O)NC(C)(C)C)c1 |
| 122 to 124 | C=C1[C@H](CO)[C@H](O)[C@H](O)[C@H]1OCc1ccccc1 |
| 48 to 50 | CCCCCCCCCCCCCCCC(=O)NCCCN1CCCCC1C (stereo unspecified) |
| 225 to 231 | O=C1NC(=O)N2Cc3ccccc3CC12 (stereo unspecified) |
| 225 to 226 | N#Cc1cccc(S(=O)(=O)n2c(=O)[nH]c3cc(Cl)ccc3c2=O)c1 |
| 52 to 53 | S=C(Cc1ccccc1)c1ccccc1 |
| 191 | O=C(CC(F)(F)F)NNc1nccc(-c2ccc(OC3CCOCC3)c(Cl)c2)c1Cl |
| 198 to 200 | CN(C)c1ccc2cc(-c3ccnc(Cl)c3C#N)ccc2c1 |
| 110 to 112 | O=C(CI)c1cc(OCc2ccccc2)c(OCc2ccccc2)c(OCc2ccccc2)c1 |
| 163 to 165 | COc1cccc(CCc2c(CCNC(=O)CCCCC(=O)NCCc3ccc(N)cc3)ccc(OC)c2OC)c1 |
| 141 to 142 | Cc1cccc(-c2nc(NC(=O)Nc3ccccc3)sc2-c2ccnc(C)n2)c1 |
| 174 to 176 | COc1ccc(S(=O)(=O)Nc2cccnc2Nc2ccc(Oc3ccccc3)cc2)cc1 |
| 45 to 47 | COc1cc2c(cc1F)C1(CO2)C(=O)N(Cc2ccc(C(F)(F)F)o2)c2ccccc21 (stereo unspecified) |

| melting point [°C] | Structure (SMILES) |
| --- | --- |
| 216 to 217 | CCCCS(=O)(=O)NC1Cc2ccc(C3=NNC(=O)C(c4ccccc4)C3)cc2C1 (stereo unspecified) |
| 124 to 125 | CC(C)(OCc1nn(Cc2ccccc2)c2ccccc12)C(=O)NNc1ccccc1 |
| 173 | CN(C)C=C(C(=O)c1ccc(Cl)cc1Cl)n1cncn1 |
| 101 to 102 | Cc1c(F)c(F)cc(C(=O)O)c1F |
| 150 to 154 | COCCNC(=O)c1c(O)c2cnc(-c3ccccc3)nc2n(CCOC)c1=O |
| 61 to 63 | CCCCCCCCCCCCCCCCCNC(=O)O[C@@H]1CCCO[C@H]1COCc1ccccc1 (relative stereo) |
| 276 to 277 | Cc1cc(C#N)cn2cc(-c3ccc(-c4ccc(C#N)cc4)o3)nc12 |
| 33 to 36.5 | CCOCCOCCOc1ccc(C(=O)OC)cc1F |
| 110 to 112 | Cn1c(COc2ccc(C(C)(CCC(=O)O)c3ccc(OCc4nc5ccccc5n4C)cc3)cc2)nc2ccccc21 |
| 231 to 232 | Nc1ncnc2c1ncn2Cc1ccccc1 |
| 270 to 275 | O=C(NN1CCNC1=O)c1cc(=O)c(O)c[nH]1 |
| 77 to 79 | CCn1cccc1C(=O)C(C#N)C(=O)Nc1ccccc1 (stereo unspecified) |
| 166 to 168 | COc1cccc(OC)c1-c1cc(C(=O)NC2(C(=O)O)C3CC4CC(C3)CC2C4)nn1-c1ccc(C(=O)N(C)CCC(=O)O)cc1C(C)C (stereo unspecified) |
| 236 to 237 | CC(=NNc1ccc(C2=NNC(=O)CC2)cc1)c1cccnc1 |
| 136 | Cc1ccc(OC(=O)n2c3c(c(=O)n(C4CCCCO4)c2=O)CCC3)cc1 (stereo unspecified) |
| 151 to 152 | CCOC(=O)c1ccc(/C=C/c2ccc3c(c2)C(C)(C)CC3(C)C)cc1 |
| 178 | CCOC(=O)C1=C(C)Nc2nc(N3CCOCC3)nc(N3CCOCC3)c2C1c1ccccc1 (stereo unspecified) |
| 203 to 204 | Cc1nc(N2C[C@@H](O)CC2=O)sc1C(=O)NCc1ccccc1 |
| 235 to 237 | O=C(Nc1ccc(S(=O)(=O)c2ccncc2)cc1)C(O)(C(F)(F)F)C(F)(F)F |
| 257 to 259 | CCCc1ccnc2c(=O)[nH]c(-c3cc([N+](=O)[O-])ccc3OCC)nc12 |
| 110 to 113 | Cc1ccc(CC2CCCN(c3nc(C)c(C(=O)NCc4ccccc4)s3)C2=O)cc1 (stereo unspecified) |
| 82 to 83 | CC(C)(C)[Si](C)(C)OCCn1nc(CO)cc1CO |
| 174 to 180 | Oc1cc(Cl)c(-c2nnn[nH]2)cc1Oc1ccc(Cl)cc1Cl |
| 278 to 281 | O=C(NCc1ccc2c(c1)-c1[nH]nc(-c3ccsc3)c1C2)c1ccncc1 |
| > 300 | CCc1nc(N)nc(N)c1N1CCN(c2ccc(C(=O)O)cc2)CC1 |

| melting point [°C] | Structure (SMILES) |
| --- | --- |
| 147 to 151 | O=C1[C@H]2C[C@H](F)CN2C(=O)N1c1cc(NS(=O)(=O)CCl)c(Cl)cc1F |
| 132 to 138 | C=CCc1cc2c(c(CC=C)c1O)N(CC=Cc1ccccc1)C(=O)CC2 |
| 173 to 175 | N=C(NS(=O)(=O)C=Cc1ccc([N+](=O)[O-])cc1)c1ccccc1 |
| 170 to 174 | COC1CN(S(=O)(=O)c2ccc(Cl)c(C(=O)O)c2)CCC1O (stereo unspecified) |
| 159 to 160 | CNC(=O)N(O)C(C)c1cc(C(C)(C)C)c(O)c(C(C)(C)C)c1 (stereo unspecified) |
| 121 | O=S1(=O)c2ccccc2C(c2ccccc2)N1CCCl (stereo unspecified) |
| 143 to 146 | Cc1oc(C(N)=O)c(C)c1-c1nc2ccc(C(=O)c3ccccc3)cc2[nH]1 |
| 175 to 178 | Cc1nc2c(OCc3c(Cl)ccc(N(C)C(=O)CN)c3Cl)cccn2c1Br |
| 114 to 116 | Cc1nc2c(-c3cccc(C(F)(F)F)c3)cncn2n1 |
| 146 | Nc1ccnc(Cl)c1Br |
| > 300 | Oc1ncnc2[nH]c(-c3ccc4ccccc4c3)cc12 |
| 171 to 173 | COc1nc(NC(=O)NS(=O)(=O)c2cccc3c2CCCC3)nc(OC)n1 |
| 190 to 192 | COC(=O)C1=C(C)Nc2ccccc2NC1c1ccccc1C(F)(F)F (stereo unspecified) |
| 202 to 204 | O=C(NN=Cc1cccnc1)NN=Cc1cccnc1 |
| 201 to 202 | O=CNCC1c2cccc3c2N(CC3)c2ccccc2N1C=O (stereo unspecified) |
| 204 | Cc1ccc(Oc2ccc(NC(=O)Nc3cc(C(C)(C)C)n[nH]3)cc2)cc1 |
| 222 to 224 | O=C(NC1(C(=O)O)CC1)C(CS)Cc1ccccc1 (stereo unspecified) |
| 129 | CCNC(=O)c1cc(-c2ccc(OC)cc2)nn(CC2CCCC2)c1=O |
| 126 to 128 | O=C1NCC2(CCN(C(=O)OCc3ccccc3)CC2)O1 |
| 79.5 to 81.5 | CC(C)(C)S(=O)(=O)CCOCCn1ccc2ncnc(Nc3ccc(Oc4cccc(C(F)(F)F)c4)c(Cl)c3)c21 |
| 120 to 122 | N#CN=C1NCCN1Cc1ccccc1 |
| 148 to 150 | CC(C)=NOCc1nc2c(N)nc3cccnc3c2n1CCCNC(=O)OC(C)(C)C |
| 84 to 86 | CC(C)(C)c1cc(SCCCCSCC(=O)O)cc(C(C)(C)C)c1O |

| Structure (SMILES) | melting point [°C] |
| --- | --- |
| CN(Cc1ccc2c(Br)c(OCc3nnn[nH]3)ccc2c1)C(=O)c1cn(Cc2ccccc2)c2ccccc12 | 197 to 198 |
| O=C1Nc2cc(F)c(F)cc2N2CCNCC12 (stereo unspecified) | 226 to 228 |
| CN1CCC(c2c[nH]c3ccc([N+](=O)[O-])cc23)CC1 | 200 to 202 |
